Blank lines part the entries; values can stand above or below the molecule they belong to.
Columns and labels:
CUL4B_MUT KBM7 cells = assay: Cell viability assay (CellTiter Glo), CUL4B mutant KBM7 clone, 3-day treatment; format: cell-based; settings: Homo sapiens, KBM-7, 72 h, CUL4B mutant KBM7, 3-day treatment, read-out: LC50 CUL4B_MUT
Protocol: (§1) KBM7^WT, UBE2M and CUL4B mutant KBM7 clones (UBE2M^mut and CUL4B^mut) were seeded at a cell density of 50,000 cells/mL in 96-well with DMSO or degraders Z1 to Z3, Z5 to Z7, Z9 to Z11, Z13 and Z14 in triplicates. Cells were treated for 3 days, after which a cell viability assay was performed (CellTiter Glo, Promega), according to manufacturer's protocol. Survival curves and IC50 values (LC50 values) were calculated by best-fit analysis of the log 10 drug concentration to fold change of drug-treated cells over DMSO-treated cells. All survival assays included technical triplicates per sample, per experiment.
(§2) Compounds, Z1 to Z3, Z5 to Z7, Z9 to Z11, Z13 and Z14, were tested for their antiproliferative effects in human leukemia cells (KBM7). These cells were either transduced with a control sgRNA (KBM7_WT), or with an sgRNA targeting UBE2M or CUL4B, leading to a hypomorph (deletion of six amino acids) with a functional impairment (UBE2M_MUT).
(§3) Indeed, 11 compounds Z1 to Z3, Z5 to Z7, Z9 to Z11, Z13 and Z14 were identified to fulfill these criteria and to stand out in terms of fold-change significance; see, e.g., FIG. 1 and Table 1. The dose ranging differential effect of these hits was assessed/validated, comparing their activity in KBM7_WT (KBM7^WT) vs UBE2_MUT and CUL4B_MUT cells (UBE2M^mut and CUL4B^mut).

UBE2M_MUT KBM7 cells = assay: Cell viability assay (CellTiter Glo), UBE2M mutant KBM7 clone, 3-day treatment; format: cell-based; settings: Homo sapiens, KBM-7, 72 h, UBE2M mutant KBM7, 3-day treatment, read-out: LC50 UBE2M_MUT
Protocol: as §1, §2, §3

KBM7_WT cells = assay: Cell viability assay (CellTiter Glo), KBM7 wild-type, 3-day treatment; format: cell-based; settings: Homo sapiens, KBM-7, 72 h, read-out: LC50 KBM7_WT
Protocol: as §1, §2, §3

[1] = biological target: T1, DDB1-CDK12/Cyclin K ternary complex (Homo sapiens, UniProt Q16531+Q9NYV4); assay: NanoBRET fold-change assay (HaloTag_CDK12 / NanoLuc_DDB1 in HEK293T); format: cell-based; settings: 10 μM compound, 10 minutes
T1 construct: expressed in transfected cells; host or cells: HEK293T wildtype cells, transient PEI transfection
How it was run: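 HEK293T cells transiently co-transfected with HaloTag_CDK12 and NanoLuc_DDB1, labelled overnight with 100 nM HaloTag 618 ligand (DMSO no-ligand control), then treated with compound at 10 μM final for 10 min at room temperature. BRET read as 460 nm donor and 647 nm acceptor emission after Nano-Glo substrate; reported as fold change.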

[2] = tested on: KBM7 cells harboring a hypomorphic UBE2M mutation; assay: KBM7 CTG EC50 assay (UBE2M knock-out); format: cell-based; settings: Homo sapiens, KBM-7; 72 h incubation, CellTiter-Glo; read-out: KBM7 CTG EC50 (UBE2M knock-out) Activity Class
How it was run: (§4)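 Wild-type KBM7 cells, or KBM7 cells with a hypomorphic UBE2M mutation that impairs Cullin-RING ligase activity, were treated for 72 h with compounds in a 10-point, 1:4 titration (0 to 20 μM). Viability was read by CellTiter-Glo 2.0 luminescence.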

[3] = biological target: T1, DDB1-CDK12/Cyclin K ternary complex; assay: NanoBRET EC50 assay (HaloTag_CDK12 / NanoLuc_DDB1 in HEK293T); format: cell-based; settings: for EC50 / NanoBRET EC50 Activity Class: 10-point titration from 20 μM, HEK293T; for EC50: read-out: NanoBRET EC50 Activity Class
Protocol: This assay measures the interaction/recruitment of CDK12/Cyclin K to DDB1, mechanistically validating the molecular glue pharmacology.
HEK293T wildtype cells are seeded 800 k cells/well (DMEM+10% FBS+1% PS) in a 6-well plate and allowed to attach for ˜7 hours followed by a transient transfection of 1.5 μg HaloTag_CDK12 Plasmid [Table 1] and 0.15 μg NanoLuc_DDB1 plasmid [Table 1] per well using PEI. Cells are incubated at 37° C., 5% CO2, harvested after 24 hours and resuspended in assay media (Opti-MEM Reduced serum media, no phenol red, 4% FBS, 1% PS). Cells are adjusted to 2.3×10^5 cells/ml and treated with HaloTag 618 Ligand at 100 nM or DMSO. 8000 cells are seeded per well in triplicates per compound in a white-walled 384-well plate, one negative control treated with DMSO instead of HaloTag 618 Ligand is seeded in triplicates and the 384-well plate is incubated at 37° C., 5% CO2 overnight. Compound stock solutions are prepared in Opti-MEM−/− (Opti-MEM I Reduced serum media, no phenol red) at 8× and used to treat the cells at a final concentration of 1× at 10 μM. Cells and compounds are incubated for 10 minutes at room temperature followed by addition of NanoBRET Nano-Glo substrate following manufacturer's protocols. The plate is shaken for 30 sec followed by immediate measurement of donor emission (NanoBRET Blue at 460 nm) and acceptor emission (BRET Deep Red at 647 nm) for 0.5 s.
The assay setup is identical to “NanoBRET fold change experimental setup”. Instead of treating cells in […] with 10 μM compound, a 10-point titration starting at 20 μM is performed with a dilution factor of 1:4, covering α range of 20000 nM-0.076 nM.

KBM7 cells (wild-type) = assay: KBM7 CTG EC50 assay (UBE2M wild-type); format: cell-based, human; settings: for EC50: Homo sapiens, KBM-7, 72 h incubation, CellTiter-Glo, read-out: KBM7 CTG EC50 (UBE2M wild-type) Activity Class; for Ratio UBE2M WT to KO: ratio of anti-proliferative activity in KBM7 wild-type versus UBE2M knock-out cells (fold); for dependence of cytotoxicity on UBE2M, in words: KBM7 wild-type versus UBE2M mutant
How it was run: as §4

CCNK = assay: NanoLuc-CCNK degradation assay (HEK293T_Nluc_CCNK-tagged cells); format: cell-based; settings: for DC50 / NanoLuc-CCNK degradation DC50 Activity Class: 4 h incubation, HEK293T_Nluc_CCNK-tagged cells; for DC50: read-out: NanoLuc-CCNK degradation DC50 Activity Class
How it was run: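 HEK293T cells with nanoluciferase knocked in at the N-terminus of endogenous CCNK (CRISPR) exposed to a 10-point titration (0 to 10 μM, 1:4) in Opti-MEM I + 4% FBS for 4 h. Nano-Glo substrate then added and luminescence read as a measure of Cyclin K abundance.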

T1 sequence (Q9NYV4 whole entry): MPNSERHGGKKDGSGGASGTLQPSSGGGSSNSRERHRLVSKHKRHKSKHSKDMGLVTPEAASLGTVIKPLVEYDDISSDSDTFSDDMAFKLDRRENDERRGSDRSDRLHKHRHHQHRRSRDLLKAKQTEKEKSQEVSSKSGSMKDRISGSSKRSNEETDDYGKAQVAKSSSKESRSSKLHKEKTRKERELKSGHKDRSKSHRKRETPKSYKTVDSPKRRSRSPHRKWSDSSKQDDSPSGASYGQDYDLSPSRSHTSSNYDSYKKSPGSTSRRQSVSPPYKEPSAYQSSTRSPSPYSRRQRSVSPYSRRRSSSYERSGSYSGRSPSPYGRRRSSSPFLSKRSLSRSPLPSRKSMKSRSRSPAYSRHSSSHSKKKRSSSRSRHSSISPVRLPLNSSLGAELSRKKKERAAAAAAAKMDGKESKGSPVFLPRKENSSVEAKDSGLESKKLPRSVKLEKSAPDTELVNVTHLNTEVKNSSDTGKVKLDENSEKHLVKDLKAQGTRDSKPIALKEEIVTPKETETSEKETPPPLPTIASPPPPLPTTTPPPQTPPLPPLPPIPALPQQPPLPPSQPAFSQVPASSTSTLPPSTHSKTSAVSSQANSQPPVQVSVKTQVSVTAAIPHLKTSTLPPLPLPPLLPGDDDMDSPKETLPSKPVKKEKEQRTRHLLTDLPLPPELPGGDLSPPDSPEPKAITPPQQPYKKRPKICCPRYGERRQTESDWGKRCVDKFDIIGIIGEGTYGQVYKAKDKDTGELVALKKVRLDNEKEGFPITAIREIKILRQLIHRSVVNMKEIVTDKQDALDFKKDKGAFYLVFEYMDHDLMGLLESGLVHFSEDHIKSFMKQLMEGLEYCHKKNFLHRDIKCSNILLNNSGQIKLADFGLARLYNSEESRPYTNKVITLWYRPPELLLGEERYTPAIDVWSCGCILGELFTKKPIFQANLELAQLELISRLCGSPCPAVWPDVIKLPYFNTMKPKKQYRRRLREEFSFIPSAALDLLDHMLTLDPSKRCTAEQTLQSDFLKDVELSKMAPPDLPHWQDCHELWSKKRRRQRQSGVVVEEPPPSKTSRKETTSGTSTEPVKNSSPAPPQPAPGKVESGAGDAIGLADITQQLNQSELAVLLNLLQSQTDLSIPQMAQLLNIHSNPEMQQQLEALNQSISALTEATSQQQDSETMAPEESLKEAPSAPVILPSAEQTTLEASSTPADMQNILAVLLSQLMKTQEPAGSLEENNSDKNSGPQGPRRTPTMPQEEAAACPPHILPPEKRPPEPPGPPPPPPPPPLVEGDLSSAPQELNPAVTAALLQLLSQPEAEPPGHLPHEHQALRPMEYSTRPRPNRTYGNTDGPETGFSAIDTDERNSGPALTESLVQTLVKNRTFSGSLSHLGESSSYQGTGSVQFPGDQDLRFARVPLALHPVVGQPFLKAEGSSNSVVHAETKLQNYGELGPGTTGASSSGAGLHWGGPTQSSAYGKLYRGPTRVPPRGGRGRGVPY
T1 sequence (Q16531 whole entry): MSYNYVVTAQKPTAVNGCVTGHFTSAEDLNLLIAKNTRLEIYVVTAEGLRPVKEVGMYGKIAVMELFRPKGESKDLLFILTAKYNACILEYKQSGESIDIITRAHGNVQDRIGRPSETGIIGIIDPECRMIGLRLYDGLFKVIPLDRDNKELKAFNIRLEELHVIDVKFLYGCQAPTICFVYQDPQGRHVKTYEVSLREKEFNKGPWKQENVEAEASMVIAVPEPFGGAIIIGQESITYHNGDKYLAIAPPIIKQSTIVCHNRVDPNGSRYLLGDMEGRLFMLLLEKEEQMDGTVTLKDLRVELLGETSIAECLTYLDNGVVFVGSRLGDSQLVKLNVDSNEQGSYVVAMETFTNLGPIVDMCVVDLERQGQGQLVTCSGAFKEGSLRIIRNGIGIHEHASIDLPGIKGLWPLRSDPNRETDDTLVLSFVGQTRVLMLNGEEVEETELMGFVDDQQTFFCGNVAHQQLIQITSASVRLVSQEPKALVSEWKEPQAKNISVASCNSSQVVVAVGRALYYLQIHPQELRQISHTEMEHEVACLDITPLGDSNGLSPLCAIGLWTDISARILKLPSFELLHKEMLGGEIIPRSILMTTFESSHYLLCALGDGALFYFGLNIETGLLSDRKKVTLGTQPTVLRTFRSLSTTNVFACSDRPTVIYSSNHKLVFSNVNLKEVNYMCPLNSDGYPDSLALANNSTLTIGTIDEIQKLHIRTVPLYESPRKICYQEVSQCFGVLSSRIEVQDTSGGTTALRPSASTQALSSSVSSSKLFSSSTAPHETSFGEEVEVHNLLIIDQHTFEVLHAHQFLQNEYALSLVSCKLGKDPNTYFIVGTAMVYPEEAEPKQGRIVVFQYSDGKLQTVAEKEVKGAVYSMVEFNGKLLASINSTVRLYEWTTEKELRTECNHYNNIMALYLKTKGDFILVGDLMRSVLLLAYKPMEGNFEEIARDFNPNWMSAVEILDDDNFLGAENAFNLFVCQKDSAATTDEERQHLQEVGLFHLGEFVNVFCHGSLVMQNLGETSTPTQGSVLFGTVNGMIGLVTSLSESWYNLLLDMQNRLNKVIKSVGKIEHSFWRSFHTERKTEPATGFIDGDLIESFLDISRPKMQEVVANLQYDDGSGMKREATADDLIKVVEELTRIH
T1 sequence (O75909 whole entry partner): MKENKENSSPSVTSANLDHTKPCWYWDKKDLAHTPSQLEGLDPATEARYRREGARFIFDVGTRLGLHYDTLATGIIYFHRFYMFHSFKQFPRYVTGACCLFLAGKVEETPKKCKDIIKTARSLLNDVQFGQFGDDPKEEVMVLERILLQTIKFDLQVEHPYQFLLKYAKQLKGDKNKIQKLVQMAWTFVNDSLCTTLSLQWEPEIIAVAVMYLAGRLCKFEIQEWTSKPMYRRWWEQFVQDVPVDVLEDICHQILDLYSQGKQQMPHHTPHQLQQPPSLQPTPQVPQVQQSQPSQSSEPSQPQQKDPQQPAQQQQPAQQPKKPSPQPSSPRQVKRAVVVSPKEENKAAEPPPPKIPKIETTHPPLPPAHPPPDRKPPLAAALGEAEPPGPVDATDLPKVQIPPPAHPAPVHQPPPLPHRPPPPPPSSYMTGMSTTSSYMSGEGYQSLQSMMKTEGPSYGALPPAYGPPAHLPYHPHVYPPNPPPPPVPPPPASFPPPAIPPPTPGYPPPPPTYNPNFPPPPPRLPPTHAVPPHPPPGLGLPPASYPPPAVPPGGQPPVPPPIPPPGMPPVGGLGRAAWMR

NanoBRET fold-change Activity Class [1]: A (greater than 4-fold increase)
EC50 [3]: ≤ 250 nM
DC50 (CCNK): ≤ 100 nM
SMILES: O=C(Cc1cn2cc(F)ccc2n1)Nc1ccc(C2CC2)cn1 [Example 3-62, N-(5-cyclopropylpyridin-2-yl)-2-(6-fluoroimidazo[1,2-a]pyridin-2-yl)acetamide]
EC50 [2]: 250 to 500 nM
EC50 (KBM7 cells (wild-type)): ≤ 250 nM
Ratio UBE2M WT to KO (KBM7 cells (wild-type)): 50.8

NanoBRET fold-change Activity Class [1]: B (3-4 fold increase)
NanoBRET EC50 Activity Class [3]: B (0.50 μM≤EC50≤0.25 μM)
NanoLuc-CCNK degradation DC50 Activity Class (CCNK): B (0.50 μM≤DC50<0.10 μM)
SMILES: Cc1ccc2c(CC(=O)Nc3cc(C(F)(F)F)[nH]n3)coc2c1C [Example 3-48, 2-(6,7-dimethylbenzofuran-3-yl)-N-(5-(trifluoromethyl)-1H-pyrazol-3-yl)acetamide]
EC50 [2]: 500 to 1000 nM
EC50 (KBM7 cells (wild-type)): ≤ 250 nM
Ratio UBE2M WT to KO (KBM7 cells (wild-type)): 15.7

NanoBRET fold-change Activity Class [1]: A (greater than 4-fold increase)
activity in NanoBRET assay (ternary complex formation), in words [3]: particularly exceptional
EC50 [3]: ≤ 250 nM
DC50 (CCNK): ≤ 100 nM
SMILES: O=C(Cc1cn2cc(Cl)ccc2n1)Nc1cc(C2CC2)[nH]n1 [Example 3-66, N-(5-cyclopropyl-1H-pyrazol-3-yl)-2-(6-chloroimidazo[1,2-a]pyridin-2-yl)acetamide]
EC50 [2]: ≤ 250 nM
EC50 (KBM7 cells (wild-type)): ≤ 250 nM
dependence of cytotoxicity on UBE2M, in words (KBM7 cells (wild-type)): very strong dependence
Ratio UBE2M WT to KO (KBM7 cells (wild-type)): 388.0
activity in NanoLuc CCNK degradation assay, in words (CCNK): particularly exceptional

NanoBRET fold-change Activity Class [1]: A (greater than 4-fold increase)
EC50 [3]: ≤ 250 nM
NanoLuc-CCNK degradation DC50 Activity Class (CCNK): D (10 μM≤DC50<1.0 μM)
SMILES: Cc1ccc(NC(=O)Cc2coc3c(C)c(C)ccc23)nc1 [Example 3-50, 2-(6,7-dimethylbenzofuran-3-yl)-N-(5-methylpyridin-2-yl)acetamide]
EC50 [2]: > 10000 nM
EC50 (KBM7 cells (wild-type)): 250 to 500 nM
Ratio UBE2M WT to KO (KBM7 cells (wild-type)): >10

NanoBRET fold-change Activity Class [1]: C (2-3 fold increase)
EC50 [3]: > 10000 nM
DC50 (CCNK): > 10000 nM
SMILES: O=C(Cc1cn2cc(F)ccc2n1)Nc1cc(C(F)(F)F)[nH]n1 [Example 3-59, 2-(6-fluoroimidazo[1,2-a]pyridin-2-yl)-N-(5-(trifluoromethyl)-1H-pyrazol-3-yl)acetamide]
EC50 [2]: > 10000 nM
EC50 (KBM7 cells (wild-type)): 250 to 500 nM
Ratio UBE2M WT to KO (KBM7 cells (wild-type)): >10

NanoBRET fold-change Activity Class [1]: B (3-4 fold increase)
NanoBRET EC50 Activity Class [3]: C (1.0 μM≤EC50<0.50 μM)
NanoLuc-CCNK degradation DC50 Activity Class (CCNK): D (10 μM≤DC50<1.0 μM)
SMILES: Cc1ccc2c(CC(=O)Nc3ccc(C(C)C)cn3)coc2c1C [Example 3-51, 2-(6,7-dimethylbenzofuran-3-yl)-N-(5-isopropylpyridin-2-yl)acetamide]
EC50 [2]: > 10000 nM
EC50 (KBM7 cells (wild-type)): 1000 to 10000 nM
Ratio UBE2M WT to KO (KBM7 cells (wild-type)): >8

Second part, the molecule before the results:

SMILES: Cc1cc(NC(C)C(=O)Nc2ccc(Cl)cn2)ccc1Br (stereo not shown) [Example Z6]
CC50 (CUL4B_MUT KBM7 cells): 6060 nM
CC50 (UBE2M_MUT KBM7 cells): 6800 nM
CC50 (KBM7_WT cells): 1570 nM

SMILES: O=C(Cc1cn2cc(F)ccc2n1)Nc1ncc(C2CC2)s1 [Example 3-43, N-(5-cyclopropylthiazol-2-yl)-2-(6-fluoroimidazo[1,2-a]pyridin-2-yl)acetamide]
NanoBRET fold-change Activity Class [1]: A (greater than 4-fold increase)
EC50 [2]: ≤ 250 nM
activity in NanoBRET assay (ternary complex formation), in words [3]: exceptional
EC50 [3]: ≤ 250 nM
EC50 (KBM7 cells (wild-type)): ≤ 250 nM
activity in KBM7 cytotoxicity assay, in words (KBM7 cells (wild-type)): extremely potent activity
activity in NanoLuc CCNK degradation assay, in words (CCNK): exceptional
DC50 (CCNK): ≤ 100 nM

SMILES: O=C(Cc1cn2cc(F)ccc2n1)Nc1ncc(C(F)(F)F)s1 [Example 3-5, 2-(6-fluoroimidazo[1,2-a]pyridin-2-yl)-N-(5-(trifluoromethyl)thiazol-2-yl)acetamide]
NanoBRET fold-change Activity Class [1]: B (3-4 fold increase)
EC50 [2]: 250 to 500 nM
activity in NanoBRET assay (ternary complex formation), in words [3]: particularly exceptional
NanoBRET EC50 Activity Class [3]: C (1.0 μM≤EC50<0.50 μM)
EC50 (KBM7 cells (wild-type)): ≤ 250 nM
Ratio UBE2M WT to KO (KBM7 cells (wild-type)): 142
activity in NanoLuc CCNK degradation assay, in words (CCNK): particularly exceptional
DC50 (CCNK): ≤ 100 nM

SMILES: O=C(Cc1ccc2ncccc2c1)Nc1ncc(C(F)(F)F)s1 [Example 3-14, 2-(quinolin-6-yl)-N-(5-(trifluoromethyl)thiazol-2-yl)acetamide]
NanoBRET fold-change Activity Class [1]: A (greater than 4-fold increase)
EC50 [2]: ≤ 250 nM
activity in NanoBRET assay (ternary complex formation), in words [3]: extremely high activity
EC50 [3]: ≤ 250 nM
EC50 (KBM7 cells (wild-type)): ≤ 250 nM
activity in KBM7 cytotoxicity assay, in words (KBM7 cells (wild-type)): extremely potent activity
activity in NanoLuc CCNK degradation assay, in words (CCNK): extremely high activity
DC50 (CCNK): ≤ 100 nM

SMILES: Cc1ccc2c(CC(=O)Nc3cc(C(C)C)[nH]n3)coc2c1C [Example 3-45, 2-(6,7-dimethylbenzofuran-3-yl)-N-(5-isopropyl-1H-pyrazol-3-yl)acetamide]
NanoBRET fold-change Activity Class [1]: A (greater than 4-fold increase)
EC50 [2]: ≤ 250 nM
NanoBRET EC50 Activity Class [3]: B (0.50 μM≤EC50≤0.25 μM)
EC50 (KBM7 cells (wild-type)): ≤ 250 nM
dependence of cytotoxicity on UBE2M, in words (KBM7 cells (wild-type)): extremely high dependence
Ratio UBE2M WT to KO (KBM7 cells (wild-type)): 18.6
DC50 (CCNK): ≤ 100 nM

— patent publication US20240132485A1, “HETEROCYCLIC CULLIN RING UBIQUITIN LIGASE COMPOUNDS AND USES THEREOF” (CEMM - FORSCHUNGSZENTRUM FÜR MOLEKULARE MEDIZIN GMBH, priority 2020, published 2024)
